Data: patent US5523407A, “Quinoline derivatives, their production and use as ACAT inhibitors” (Takeda Chemical Industries, Ltd., priority 1989, dated 1996)

Key:
[1] = biological target: T1, Acyl-CoA: cholesterol acyltransferase (ACAT) (Rattus norvegicus, UniProt Q7TQM4); assay: ACAT inhibitory activity (rat small intestine mucosal microsome; labeled cholesterol ester from [1-^14 C] oleoyl-CoA); format: biochemical, Sprague-Dawley rat; details: 10^-6 M test compound; read-out: ACAT Inhibition Rate
T1 construct: from the mucosal microsome fraction of the small intestine; from tissue; host or cells: small intestine mucosal microsomes, male 6-week old Sprague-Dawley rats fasted 20 hours
T1 sequence (Q7TQM4 1-524): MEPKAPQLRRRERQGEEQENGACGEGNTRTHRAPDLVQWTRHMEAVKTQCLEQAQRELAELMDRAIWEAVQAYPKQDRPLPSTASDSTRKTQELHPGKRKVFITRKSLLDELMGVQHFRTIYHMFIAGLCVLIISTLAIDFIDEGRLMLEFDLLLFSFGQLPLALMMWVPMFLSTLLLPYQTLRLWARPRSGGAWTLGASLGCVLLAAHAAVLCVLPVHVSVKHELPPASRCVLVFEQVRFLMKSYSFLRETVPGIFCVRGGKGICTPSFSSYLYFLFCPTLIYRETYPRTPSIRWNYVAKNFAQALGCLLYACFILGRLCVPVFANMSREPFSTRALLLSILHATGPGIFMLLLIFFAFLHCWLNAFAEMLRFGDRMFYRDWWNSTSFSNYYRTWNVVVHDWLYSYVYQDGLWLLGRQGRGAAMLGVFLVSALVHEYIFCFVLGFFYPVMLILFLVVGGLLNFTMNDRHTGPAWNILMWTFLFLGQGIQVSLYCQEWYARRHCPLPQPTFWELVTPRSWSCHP
Experimental: 1. Acyl-CoA: cholesterol acyltransferase (ACAT) inhibitory activity
The enzyme ACAT was prepared by the method of Heider et al. described in Journal of Lipid Research, Vol. 24, page 1127 (1982), from the mucosal microsome fraction of the small intestine of male, 6-week old Sprague-Dawley rats which had been fasted for 20 hours.
ACAT activity was calculated by the method of Helgerud et. al. described in Journal of Lipid Research, Vol. 22, page 271 (1981), namely, by measuring the amount of the labeled cholesterol ester produced from [1-^14 C] oleoyl-CoA and endogenous cholesterol.
Inhibition rates (%) of the production of the labeled cholesterol ester wherein 10-^6 M of test compounds were added are shown as an index of ACAT inhibitory activity in Table 1.

[2] = tested on: lipoperoxide production in homogenized brain; assay: Lipoperoxide inhibitory activity (natural oxidation of homogenized rat brain, malonodialdehyde by TBA method); format: biochemical, Sprague-Dawley rat; details: for Lipoperoxide inhibition rate: 10^-5 M test compound; for IC50: read-out: Lipoperoxide Inhibitory Activity, 50% inhibitory concentration (IC50)
Experimental: 2. Lipoperoxide inhibitory activity
From 10-week, old, male Sprague-Dawely rats which were fed CE-2 diet (Nippon Claire) and water, their brains were taken out by the method of Stocks disclosed in Clinical Science Molecular Medicine, Vol. 78, page 215 (1974), to form lipoperoxide by natural oxidation. The compound (I) in an amount of 10-^3 moles was dissolved in ethanol, and the resultant (10 μl) was added to each homogenized brain. On the other hand, ethanol from which the compound (I) was removed was added to a control group of homogenized brain. A malonodialdehyde was measured by the (TBA) method disclosed in Okawa et al., Analysis Biochemistry, Vol. 95, page 351 (1979). The produced lipoperoxide was calculated based on the measured value of malonodialdehyde.

| Structure (SMILES) | inhibition at 1 µM [1] [%] | IC50 [2] [nM] | Lipoperoxide inhibition rate [2] [%] |
| --- | --- | --- | --- |
| COc1ccc(-c2c(NC(=O)c3cc(C(C)(C)C)c(O)c(C(C)(C)C)c3)cnc3ccc(Cl)cc23)cc1OC [Example 3, 3-(3,5-di-tert-butyl-4-hydroxybenzamido)-6-chloro-4-(3,4-dimethoxyphenyl)quinoline] | 83.4 |  |  |
| COC(=O)c1ccc(C=CC(=O)Nc2cnc3c(C)cc(C)cc3c2-c2ccccc2Cl)cc1 [Example 23, 4-(2-chlorophenyl)-3-(4-methoxycarbonylcinnamoylamino)-6,8-dimethylquinoline] | 65.9 |  |  |
| Cc1cc(C)c2ncc(NC(=O)C3(C)Cc4c(C)c(O)c(C)c(C)c4O3)c(-c3ccccc3Cl)c2c1 (stereo not drawn) [Example 14, 4-(2-chlorophenyl)-3-(2,3-dihydro-5-hydroxy-2,4,6,7-tetramethylbenzofuran-2-ylcarbonyl)amino-6,8-dimethylquinoline] | 83.1 | 370 | 98.4 |
| Cc1cc(C)c2ncc(NC(=O)c3cc(C)c(O)c(C)c3C)c(-c3ccccc3Cl)c2c1 [Example 11, 4-(2-chlorophenyl)-3-(4-hydroxy-2,3,5-trimethylbenzamido)-6,8-dimethylquinoline] | 94.3 |  |  |
| COc1ccc(-c2c(NC(=O)c3cc(C(C)(C)C)c(O)c(C(C)(C)C)c3)cnc3ccc(Cl)cc23)c(OC)c1OC [Example 4, 3-(3,5-di-tert-butyl-4-hydroxybenzamido)-6-chloro-4-(2,3,4-trimethoxyphenyl) quinoline] | 84.8 |  |  |
| CC1=C(C(=O)Nc2cnc3c(C)cc(C)cc3c2-c2ccccc2Cl)Sc2cc(F)ccc2N1 [Example 16, 4-(2-chlorophenyl)-3-(7-fluoro-3-methyl-4H-1,4-benzothiazin-2-ylcarbonyl)amino-6,8-dimethylquinoline] | 72.6 | 1200 | 100 |
| COc1ccc(OC)c(C=CC(=O)Nc2cnc3c(C)cc(C)cc3c2-c2ccccc2Cl)c1 [Example 25, 4-(2-chlorophenyl)-3-(2,5-dimethoxycinnamoylamino)-6,8-dimethylquinoline] | 73.7 |  |  |
| CC(=O)Oc1c(C(C)C)cc(C(=O)Nc2cnc3c(C)cc(C)cc3c2-c2ccccc2Cl)cc1C(C)C [Example 6, 3-(4-acetoxy-3,5-diisopropylbenzamido)-4-(2-chlorophenyl)-6,8-dimethylquinoline] | 79.3 |  |  |
| CC1=C(C(=O)Nc2cnc3c(C)cc(C)cc3c2-c2ccccc2Cl)Sc2ccccc2N1 [Example 15, 4-(2-chlorophenyl)-6,8-dimethyl-3-(3-methyl-4H-1,4-benzothiazin-2-ylcarbonyl) aminoquinoline] | 76 |  |  |
| COc1cc(C=CC(=O)Nc2cnc3c(C)cc(C)cc3c2-c2ccccc2Cl)cc(OC)c1OC(C)=O [Example 27, 3-(4-acetoxy-3,5-dimethoxylcinnamoylamino)-4-(2-chlorophenyl)-6,8-dimethylquinoline] | 83.7 |  | 90.2 |
| COc1cccc(C=CC(=O)Nc2cnc3c(C)cc(C)cc3c2-c2ccccc2Cl)c1OC [Example 24, 4-(2-chlorophenyl)-3-(2,3-dimethoxycinnamoylamino)-6,8-di-methylquinoline] | 69.4 |  |  |
| Cc1cc(C)c2ncc(NC(=O)c3cc(C(C)(C)C)c(O)c(C(C)(C)C)c3)c(-c3ccccc3Cl)c2c1 [Example 1, 4-(2-chlorophenyl)-3-(3,5-di-tert-butyl-4-hydroxybenzamido)-6,8-dimethylquinoline] | 82.2 |  |  |
| CC(=O)Oc1c(C)cc(C(=O)Nc2cnc3c(C)cc(C)cc3c2-c2ccccc2Cl)cc1C [Example 8, 3-(4-acetoxy-3,5-dimethylbenzamido)-4-(2-chlorophenyl)-6,8-dimethylquinoline] | 62 |  |  |
| Cc1cc(C)c2ncc(NC(=O)C3(C)CCc4c(C)c(O)c(C)c(C)c4O3)c(-c3ccccc3Cl)c2c1 (stereo not drawn) [Example 12, 4-(2-chlorophenyl)-3-(6-hydroxy-2,5,7,8-tetramethylchroman-2-ylcarbonyl)amino-6,8-dimethylquinoline] | 41.2 |  | 98.5 |
| COc1ccc(C=CC(=O)Nc2cnc3cc(C)c(C)cc3c2-c2ccccc2Cl)cc1OC [Example 22, 4-(2-chlorophenyl)-3-(3,4-dimethoxycinnamoylamino)-6,7-di-methylquinoline] | 92.6 |  |  |
| CC(=O)Oc1c(C)c(C)c2c(c1C)CC(C)(C(=O)Nc1cnc3c(C)cc(C)cc3c1-c1ccccc1Cl)O2 (stereo not drawn) [Example 13, 3-(5-acetoxy-2,3-dihydro-2,4,6,7-tetramethylbenzofuran-2-ylcarbonyl)amino-4-(2-chlorophenyl)-6,8-dimethylquinoline] | 64.7 |  | 71.6 |
| Cc1cc(C)c2ncc(NC(=O)Cc3ccc(F)cc3F)c(-c3ccccc3Cl)c2c1 [Example 18, 4-(2-chlorophenyl)-3-(2,4-difluorophenylacetylamino)-6,8-dimethylquinoline] | 94 |  |  |

Second part, led by results:

| inhibition at 1 µM [1] [%] | IC50 [2] [nM] | Structure (SMILES) | Lipoperoxide inhibition rate [2] [%] |
| --- | --- | --- | --- |
| 81.7 | 1300 | COc1cc(C=CC(=O)Nc2cnc3c(C)cc(C)cc3c2-c2ccccc2Cl)cc(OC)c1O [Example 33, 4-(2-chlorophenyl)-3-(4-hydroxy-3,5-dimethoxycinnamonylamino)-6,8-dimethylquinoline] | 96.1 |
| 81.7 | 810 | Cc1cc(C)c2ncc(NC(=O)C=Cc3cc(C)c(O)c(C)c3C)c(-c3ccccc3Cl)c2c1 [Example 35, 4-(2-chlorophenyl)-3-(4-hydroxy-2,3,-trimethylcinnamoylamino)-6,8-dimethylquinoline] | 84.9 |
| 86.4 |  | Cc1cc(C)c2ncc(NC(=O)C=Cc3cc(C)c(O)c(C)c3)c(-c3ccccc3Cl)c2c1 [Example 34, 4-(2-chlorophenyl)-3-(4-hydroxy-3,5-dimethylcinnamoylamino)-6,8-dimethylquinoline] | 62.1 |
| 66.6 | 400 | Cc1cc(C)c2ncc(NC(=O)C=Cc3cccc(O)c3O)c(-c3ccccc3Cl)c2c1 [Example 32, 4-(2-chlorophenyl)-3-(2,3-dihydroxycinnamoylamino)-6,8-dimethylquinoline] | 99.7 |
| 97 |  | O=C(C=Cc1ccc(O)c(O)c1)Nc1cnc2ccc(Cl)cc2c1-c1ccccc1Cl [Example 43, 6-chloro-4-(2-chlorophenyl)-3-(3,4-dihydroxycinnamoylamino)quinoline] |  |
| 72.6 |  | COc1ccc(C=CC(=O)Nc2cnc3c(C)cc(C)cc3c2-c2ccccc2Cl)c(OC)c1OC [Example 46, 4-(2-chlorophenyl)-6,8-dimethyl-3-(2,3,4-trimethoxycinnamoylamino) quinoline] |  |
| 78.2 |  | Cc1cc(C)c2ncc(NC(=O)C=Cc3ccc(O)c(O)c3)c(-c3ccccc3Cl)c2c1 [Example 38, 4-(2-chlorophenyl)-3-(3,4-dihydroxycinnamoylamino)-6,8-dimethylquinoline] |  |
| 63 |  | COc1ccc(C=CC(=O)Nc2c(-c3ccccc3Cl)c3cc(C)cc(C)c3n(C)c2=O)cc1OC [Example 36, 4-(2-chlorophenyl)-3-(3,4-dimethoxycinnamoylamino)-1,6,8-trimethyl-2(1H)-quinolone] |  |
